In ChEMBL document CHEMBL6071134, “Novel bibenzyl compound Ae exhibits anti-agiogenic activity in HUVECs in vitro and zebrafish in vivo” (Bioorg Med Chem, 2024):
Active and inactive are the calls of the source. The rule behind the calls is not given here.

Experiments:
Danio rerio [1] = species on record: Danio rerio; assay: Antiangiogenic activity against transgenic zebrafish model assessed as inhibition of inter-segmental blood vessels of embryo measured after 72 hrs post fertilization by fluorescence microscopy based analysis; type: functional, organism-based; conditions: dose 0.625-2.5 µM
Danio rerio [2] = species on record: Danio rerio; assay: Antiangiogenic activity against transgenic zebrafish model assessed as inhibition of inter-segmental blood vessels of embryo at 0.625 uM measured after 72 hrs post fertilization by fluorescence microscopy based analysis; type: functional, organism-based
Danio rerio [3] = species on record: Danio rerio; assay: Antiangiogenic activity against transgenic zebrafish model assessed as inhibition of inter-segmental blood vessels of embryo at 2.5 uM measured after 72 hrs post fertilization by fluorescence microscopy based analysis relative to control; type: functional; parameters: scale not given: the % may be the effect or the level left
[4] = Toxicity in transgenic zebrafish at 2.5 uM measured after 72 hrs; parameters: species or system Danio rerio; conditions: in vivo
[5] = (§1) Antiproliferative activity against HUVEC cells measured after 48 hrs by CCK-8 method; type: toxicity, cell-based; conditions: human, HUVEC cells
HUVEC [6] = assay: as §1; type: toxicity, cell-based; conditions: human, huvec, 48 h; dose 0.062-16 µM
HUVEC [7] = assay: Inhibition of cell migration in HUVEC cells at 0.25 uM by crystal violet staining based Boyden chamber assay; type: functional; conditions: Homo sapiens
HUVEC [8] = assay: Inhibition of cell migration in HUVEC cells at 0.25 uM by crystal violet staining based Boyden chamber assay relative to control; type: functional; conditions: Homo sapiens
HUVEC [9] = assay: Inhibition of cell migration in HUVEC cells at 0.5 uM by crystal violet staining based Boyden chamber assay relative to control; type: functional; conditions: Homo sapiens
HUVEC [10] = assay: Inhibition of cell migration in HUVEC cells at 1 uM by crystal violet staining based Boyden chamber assay relative to control; type: functional; conditions: Homo sapiens
HUVEC [11] = assay: Inhibition of cell migration in HUVEC cells at 2 uM by crystal violet staining based Boyden chamber assay relative to control; type: functional; conditions: Homo sapiens
HUVEC [12] = assay: Inhibition of cell migration in HUVEC cells assessed as […] in wound closure area at 0.25 to 2 uM incubated for 12 hrs by crystal violet staining based wound healing assay relative to DMSO; type: functional; conditions: Homo sapiens, dose 0.25-2 µM
HUVEC [13] = assay: Inhibition of cell migration in HUVEC cells incubated for 12 hrs by crystal violet staining based wound healing assay; type: functional; conditions: Homo sapiens, dose 0.25-2 µM
HUVEC [14] = assay: Inhibition of cell invasion in HUVEC cells measured after 24 hrs by crystal violet staining based inverted fluorescence microscopy analysis; type: functional; conditions: Homo sapiens, dose 0.25-2 µM
HUVEC [15] = assay: Inhibition of cell invasion in HUVEC cells assessed as reduction in number of invading cells at 2 uM measured after 24 hrs by crystal violet staining based inverted fluorescence microscopy analysis relative to control; type: functional; conditions: Homo sapiens
HUVEC [16] = assay: Anti-angiogenesis activity in HUVEC cells assessed as reduction in total tube length at 1 uM incubated for 12 hrs by inverted microscopic analysis relative to control; type: functional, Homo sapiens; parameters: scale not given: the % may be the effect or the level left
HUVEC [17] = assay: Anti-angiogenesis activity in HUVEC cells assessed as reduction in total tube length at 2 uM incubated for 12 hrs by inverted microscopic analysis relative to control; type: functional, Homo sapiens; parameters: scale not given: the % may be the effect or the level left
HUVEC [18] = assay: Anti-angiogenesis activity in HUVEC cells assessed as appearance of broken tubule network structure at 0.25 to 2 uM incubated for 12 hrs by inverted microscopic analysis; type: functional, cell-based; conditions: Homo sapiens, dose 0.25-2 µM
HUVEC [19] = assay: Anti-angiogenesis activity in HUVEC cells assessed as appearance of incomplete tubule network structure at 0.25 to 2 uM incubated for 12 hrs by inverted microscopic analysis; type: functional, cell-based; conditions: Homo sapiens, dose 0.25-2 µM
HUVEC [20] = assay: Anti-angiogenesis activity in HUVEC cells assessed as appearance of few branches in tubule network structure at 0.25 to 2 uM incubated for 12 hrs by inverted microscopic analysis; type: functional, cell-based; conditions: Homo sapiens, dose 0.25-2 µM
HUVEC [21] = assay: Anti-angiogenesis activity in HUVEC cells assessed as appearance of shorter tubule length at 0.25 to 2 uM incubated for 12 hrs by inverted microscopic analysis; type: functional, cell-based; conditions: Homo sapiens, dose 0.25-2 µM
Danio rerio [22] = species on record: Danio rerio; assay: Anti-angiogenesis activity in zebrafish embryo assessed as downregulation of ang-2 mRNA expression at 0.5 to 5 uM measured after 24 hrs by qRT-PCR analysis; type: functional, organism-based; conditions: dose 0.5-5 µM
Danio rerio [23] = species on record: Danio rerio; assay: Anti-angiogenesis activity in zebrafish embryo assessed as downregulation of tek mRNA expression at 0.5 to 5 uM measured after 24 hrs by qRT-PCR analysis; type: functional, organism-based; conditions: dose 0.5-5 µM
Danio rerio [24] = species on record: Danio rerio; assay: Anti-angiogenesis activity in zebrafish embryo assessed as downregulation of kdr mRNA expression at 0.5 to 5 uM measured after 24 hrs by qRT-PCR analysis; type: functional, organism-based; conditions: dose 0.5-5 µM
Danio rerio [25] = species on record: Danio rerio; assay: Anti-angiogenesis activity in zebrafish embryo assessed as downregulation of kdr1 mRNA expression at 0.5 to 5 uM measured after 24 hrs by qRT-PCR analysis; type: functional, organism-based; conditions: dose 0.5-5 µM
Danio rerio [26] = species on record: Danio rerio; assay: Anti-angiogenesis activity in zebrafish embryo assessed as effect on […]-mRNA expression at 0.5 to 5 uM measured after 24 hrs by qRT-PCR analysis; type: functional, organism-based; conditions: dose 0.5-5 µM
Danio rerio [27] = species on record: Danio rerio; assay: Anti-angiogenesis activity in zebrafish embryo assessed as effect on flt-1 mRNA expression at 0.5 to 5 uM measured after 24 hrs by qRT-PCR analysis; type: functional, organism-based; conditions: dose 0.5-5 µM
Danio rerio [28] = species on record: Danio rerio; assay: Anti-angiogenesis activity in zebrafish embryo assessed as effect on fgf2 mRNA expression at 0.5 to 5 uM measured after 24 hrs by qRT-PCR analysis; type: functional, organism-based; conditions: dose 0.5-5 µM
Danio rerio [29] = species on record: Danio rerio; assay: Anti-angiogenesis activity in zebrafish embryo assessed as effect on fgfr2 mRNA expression at 0.5 to 5 uM measured after 24 hrs by qRT-PCR analysis; type: functional, organism-based; conditions: dose 0.5-5 µM

In the case of `COc1cc(CCc2ccccc2Cl)cc(OC)c1O`, the Activity (Danio rerio [1]) is reported as “Dose-Dependent Effect”, the Activity (Danio rerio [2]) is reported as “Active” and the Activity (Danio rerio [3]) is reported as 100%. For the same compound, the Activity [4] was “Toxic”, the IC50 at 48 h [5] was 1700 nM and the Activity (HUVEC [6]) was “Dose-Dependent Effect”. For the same compound, the inhibition (HUVEC [7]) was “Active”, the inhibition at 0.25 µM (HUVEC [8]) was roughly 37.2% and the inhibition at 0.5 µM (HUVEC [9]) was roughly 64.4%. For the same compound, the inhibition at 1 µM (HUVEC [10]) was roughly 71.3%, the inhibition at 2 µM (HUVEC [11]) was roughly 78.5% and the inhibition (HUVEC [12]) was “Active”. For the same compound, the inhibition (HUVEC [13]) was “Dose-Dependent Effect”, the inhibition (HUVEC [14]) was “Dose-Dependent Effect” and the inhibition at 2 µM (HUVEC [15]) was 17.4%. The Activity (HUVEC [16]) was 38.7%, the Activity (HUVEC [17]) was 22.6% and the Activity (HUVEC [18]) was “Active”. For the same compound, the Activity (HUVEC [19]) was “Active”, the Activity (HUVEC [20]) was “Active” and the Activity (HUVEC [21]) was “Active”. For the same compound, the Activity (Danio rerio [22]) was “Active”, the Activity (Danio rerio [23]) was “Active” and the Activity (Danio rerio [24]) was “Active”. For the same compound, the Activity (Danio rerio [25]) was “Active”, the Activity (Danio rerio [26]) was “inactive” and the Activity (Danio rerio [27]) was “inactive”. The Activity (Danio rerio [28]) was “inactive” and the Activity (Danio rerio [29]) was “inactive”.
